Legend:
[1] = Storage stability: water content by KF Autotitrator; assay type: physicochemical
Protocol: Water content was measured using about 0.2 g sample in methanol by KF Autotitrator.

[2] = Storage stability: impurity profile
[3] = At 6 months, storage at 2° C. to 8° C.
[4] = Initial, stability study at 2° C. to 8° C.

Row | Compound | Water absorption on storage (in words) ([1]; 2° C. to 8° C. for 6 months) | Water content [1, 3] | Water content [1, 4] | Impurity A [2, 3] | Impurity B [2, 3] | Impurity C [2, 3] | Impurity A [2, 4] | Impurity B [2, 4] | Impurity C [2, 4] | Stability on storage (in words) ([2]; on storage) | Rise in impurities on storage (in words) ([2]; 2° C. to 8° C. for 6 months)
1 | COCCCOc1ccnc(C[S@@+]([O-])c2nc3ccccc3[nH]2)c1C [dexrabeprazole sodium] | absorbed more water than dexrabeprazole magnesium | 13.58 % w/w | 6.84 % w/w | 0.06% | 1.25% | 0.33% | 0.02% | 0.87% | 0.22% | not stable on storage | 
2 | dexrabeprazole magnesium hydrate |  | 10.46 % w/w | 10.27 % w/w | 0.02% | 0.07% | 0.09% | 0.02% | 0.07% | 0.09% |  | does not show significant rise in impurities

Source: patent US20150080579A1, “Salts and Polymorphs of Dexrabeprazole” (Cipla Limited, priority 2010, published 2015)
